Measured values published in publication PMC10999543, “Identification of kinase modulators as host-directed therapeutics against intracellular methicillin-resistant Staphylococcus aureus” (Frontiers in Cellular and Infection Microbiology, 2024).
Like-named read-outs stand apart in the source and are kept apart here.

Tests used:
intracellular MRSA = format: cell-based, Staphylococcus aureus; conditions: for %GFP+ rep 1 / z-scoreMRSA+ rep 1: replicate 1; for %GFP+ rep 2 / z-scoreMRSA+ rep 2: replicate 2; for %GFP+ rep 3 / z-scoreMRSA+ rep 3: replicate 3; for z-scoreMRSA+ mean: mean of 3 replicates
How it was run: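 HeLa cells infected with GFP-MRSA (MOI ~6.8), gentamicin-cleared, then incubated overnight at 37°C with inhibitors plus 5 µg/ml gentamicin; DMSO as negative control, triplicates. Flow cytometry gave % GFP-positive cells and cell count (viability surrogate); hits by plate z-score (MRSA ≤ -2, HeLa count ≥ -3).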

HeLa cells = assay: Compound screen by flow cytometry: HeLa cell count as surrogate readout of cell viability (z-scoreHeLa); format: cell-based, human; conditions: for cell count rep 1 / z-scoreHeLa rep 1: replicate 1; for cell count rep 2 / z-scoreHeLa rep 2: replicate 2; for cell count rep 3 / z-scoreHeLa rep 3: replicate 3; for z-scoreHeLa mean: mean of 3 replicates
How it was run: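 HeLa cells were infected with GFP-MRSA (mean MOI 6.8 ± 4.6) for 1 h, and extracellular bacteria were killed with 30 µg/ml gentamicin. Cells were then incubated overnight with kinase inhibitors in 5 µg/ml gentamicin, in triplicate against DMSO controls. Flow-cytometric cell count served as a viability surrogate, expressed as a plate z-score.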

[1] = PKIS compound screen raw data, MRSA-infected HeLa cells
[2] = Yes/No: effect without cell death
[3] = compound screen, MRSA-infected HeLa cells
[4] = PKIS compound screen raw data, HeLa cell count
[5] = compound screen, HeLa cell count
[6] = PKIS compound screen, MRSA-infected HeLa cells
[7] = PKIS compound screen, Yes/No call
[8] = PKIS compound screen, Yes/No call (effect without cell death)
[9] = PKIS compound screen, Yes/No call on z-scoreMRSA+
[10] = PKIS compounds raw data, MRSA-infected HeLa cells
[11] = PKIS compound screen, HeLa cell count
[12] = PKIS compound screen, Yes/No call on z-scoreHeLa
[13] = PKIS compounds raw data, HeLa cell count

SMILES	%GFP+ rep 1 (intracellular MRSA; [1])	%GFP+ rep 2 (intracellular MRSA; [1])	%GFP+ rep 3 (intracellular MRSA; [1])	cell count rep 1 (HeLa cells; [4])	cell count rep 2 (HeLa cells; [4])	cell count rep 3 (HeLa cells; [4])	effect (intracellular MRSA; [7])	hit (intracellular MRSA; [8])	z-scoreMRSA+ mean (intracellular MRSA; PKIS compound screen)	z-scoreMRSA+ rep 1 (intracellular MRSA; PKIS compound screen)	z-scoreMRSA+ rep 2 (intracellular MRSA; PKIS compound screen)	z-scoreMRSA+ rep 3 (intracellular MRSA; PKIS compound screen)	%GFP+ rep 1 (intracellular MRSA; [10])	%GFP+ rep 2 (intracellular MRSA; [10])	%GFP+ rep 3 (intracellular MRSA; [10])	cell death (HeLa cells; [7])	z-scoreHeLa mean (HeLa cells; PKIS compound screen)	z-scoreHeLa rep 1 (HeLa cells; PKIS compound screen)	z-scoreHeLa rep 2 (HeLa cells; PKIS compound screen)	z-scoreHeLa rep 3 (HeLa cells; PKIS compound screen)	further results
CCn1c(-c2nonc2N)nc2c(C#CC(C)(C)O)nc(OC[C@H](N)c3ccccc3)cc21 [GSK943949A]	19.2%	16.3%	15.7%	779	847	431															effect (intracellular MRSA; Yes/No call from z-scoreMRSA+): No; hit (intracellular MRSA; [2]): No; z-scoreMRSA+ mean (intracellular MRSA; [3]): -1.63; z-scoreMRSA+ rep 1 (intracellular MRSA; [3]): -1.42; z-scoreMRSA+ rep 2 (intracellular MRSA; [3]): -1.53; z-scoreMRSA+ rep 3 (intracellular MRSA; [3]): -1.95; cell death (HeLa cells; Yes/No call from z-scoreHeLa): No; z-scoreHeLa mean (HeLa cells; [5]): -2.76; z-scoreHeLa rep 1 (HeLa cells; [5]): -2.58; z-scoreHeLa rep 2 (HeLa cells; [5]): -2.66; z-scoreHeLa rep 3 (HeLa cells; [5]): -3.04
Cc1cccc(-c2nc(Nc3ccc4c(cnn4C)c3)c3ccccc3n2)n1 [GW876731X]	19.5%	19.1%	19.8%	29057	27157	25742															effect (intracellular MRSA; Yes/No call from z-scoreMRSA+): No; hit (intracellular MRSA; [2]): No; z-scoreMRSA+ mean (intracellular MRSA; [3]): -0.09; z-scoreMRSA+ rep 1 (intracellular MRSA; [3]): 0.19; z-scoreMRSA+ rep 2 (intracellular MRSA; [3]): -0.0842; z-scoreMRSA+ rep 3 (intracellular MRSA; [3]): -0.39; cell death (HeLa cells; Yes/No call from z-scoreHeLa): No; z-scoreHeLa mean (HeLa cells; [5]): 0.49; z-scoreHeLa rep 1 (HeLa cells; [5]): -0.19; z-scoreHeLa rep 2 (HeLa cells; [5]): 0.32; z-scoreHeLa rep 3 (HeLa cells; [5]): 1.33
Cc1nn2c(=O)cc(N3CCOCC3)nc2n1Cc1cccc(Cl)c1Cl [GSK2342769A]	10.7%	10.7%	15.0%	31673	24146	21902	No	No and Yes	-0.59	-0.67	-0.54	-0.55	23.6%	23.2%	24.3%	No	-1.49	-1.68	-1.59	-1.19	z-scoreMRSA+ mean (intracellular MRSA; [6]): -2.08; z-scoreMRSA+ rep 1 (intracellular MRSA; [6]): -2.16; z-scoreMRSA+ rep 2 (intracellular MRSA; [6]): -2.38; z-scoreMRSA+ rep 3 (intracellular MRSA; [6]): -1.70; effect (intracellular MRSA; [9]): Yes; z-scoreHeLa mean (HeLa cells; [11]): 0.21; z-scoreHeLa rep 1 (HeLa cells; [11]): 0.25; z-scoreHeLa rep 2 (HeLa cells; [11]): -0.19; z-scoreHeLa rep 3 (HeLa cells; [11]): 0.58; cell death (HeLa cells; [12]): No; cell count rep 1 (HeLa cells; [13]): 3246; cell count rep 2 (HeLa cells; [13]): 3614; cell count rep 3 (HeLa cells; [13]): 3721
Nc1ncc(-c2cccnc2)c2scc(-c3ccc4c(c3)CCN4C(=O)Cc3ccccc3)c12 [GSK683281A]	18.3%	19.8%	19.8%	22126	22399	35639	No	No	0.38	0.20	0.70	0.25	28.1%	29.7%	28.6%	No	0.13	0.36	0.0122	0.0253	z-scoreMRSA+ mean (intracellular MRSA; [6]): 0.18; z-scoreMRSA+ rep 1 (intracellular MRSA; [6]): 0.14; z-scoreMRSA+ rep 2 (intracellular MRSA; [6]): 0.38; z-scoreMRSA+ rep 3 (intracellular MRSA; [6]): 0.00377; effect (intracellular MRSA; [9]): No; z-scoreHeLa mean (HeLa cells; [11]): -0.93; z-scoreHeLa rep 1 (HeLa cells; [11]): 0.30; z-scoreHeLa rep 2 (HeLa cells; [11]): -2.31; z-scoreHeLa rep 3 (HeLa cells; [11]): -0.78; cell death (HeLa cells; [12]): No; cell count rep 1 (HeLa cells; [13]): 6640; cell count rep 2 (HeLa cells; [13]): 6026; cell count rep 3 (HeLa cells; [13]): 5637
COc1cc2nccc(Nc3cccc(Oc4ccccc4)c3)c2cc1OC [GW284543A]	19.7%	21.7%	21.6%	34308	33464	39414		No													z-scoreMRSA+ mean (intracellular MRSA; [6]): 0.70; z-scoreMRSA+ rep 1 (intracellular MRSA; [6]): 0.58; z-scoreMRSA+ rep 2 (intracellular MRSA; [6]): 0.96; z-scoreMRSA+ rep 3 (intracellular MRSA; [6]): 0.55; effect (intracellular MRSA; [9]): No; z-scoreHeLa mean (HeLa cells; [11]): 0.58; z-scoreHeLa rep 1 (HeLa cells; [11]): 2.15; z-scoreHeLa rep 2 (HeLa cells; [11]): -0.25; z-scoreHeLa rep 3 (HeLa cells; [11]): -0.18; cell death (HeLa cells; [12]): No
CC(C)c1nc(-c2ccc(F)c(NS(=O)(=O)c3c(F)cccc3F)c2)c(-c2ccnc(Nc3ccc(N4CCOCC4)nc3)n2)s1 [GSK1804250A]	10.3%	10.8%	13.4%	20970	16426	18426	No	No and Yes	-0.36	-0.40	-0.43	-0.25	25.0%	23.8%	25.9%	No	-1.04	-1.27	-0.95	-0.90	z-scoreMRSA+ mean (intracellular MRSA; [6]): -2.25; z-scoreMRSA+ rep 1 (intracellular MRSA; [6]): -2.27; z-scoreMRSA+ rep 2 (intracellular MRSA; [6]): -2.35; z-scoreMRSA+ rep 3 (intracellular MRSA; [6]): -2.14; effect (intracellular MRSA; [9]): Yes; z-scoreHeLa mean (HeLa cells; [11]): -1.06; z-scoreHeLa rep 1 (HeLa cells; [11]): -1.56; z-scoreHeLa rep 2 (HeLa cells; [11]): -1.52; z-scoreHeLa rep 3 (HeLa cells; [11]): -0.10; cell death (HeLa cells; [12]): No; cell count rep 1 (HeLa cells; [13]): 3939; cell count rep 2 (HeLa cells; [13]): 4582; cell count rep 3 (HeLa cells; [13]): 4170
Cn1cc(C=C2C(=O)Nc3cccnc32)c2ccccc21 [GW441756X]							No	No	-0.68	-0.28	-0.47	-1.30	12.3%	12.1%	11.5%	No	0.63	0.06	0.32	1.49	cell count rep 1 (HeLa cells; [13]): 4844; cell count rep 2 (HeLa cells; [13]): 4695; cell count rep 3 (HeLa cells; [13]): 10080
c1ccc(-c2ccc3c(Nc4ccc5[nH]ccc5c4)ccnc3c2)nc1 [GW440138A]							No	No	1.90	1.55	2.03	2.14	35.0%	36.6%	38.8%	No	1.19	0.89	1.20	1.48	cell count rep 1 (HeLa cells; [13]): 7521; cell count rep 2 (HeLa cells; [13]): 7813; cell count rep 3 (HeLa cells; [13]): 7928
Cc1ccc(NC(=O)Nc2ccccc2)cc1-c1ccc(C(=O)Nc2ccncc2)cc1 [GSK1398471A]							No	No	2.16	1.78	2.78	1.92	36.2%	40.5%	37.6%	No	-2.19	-2.47	-2.21	-1.88	cell count rep 1 (HeLa cells; [13]): 1939; cell count rep 2 (HeLa cells; [13]): 2675; cell count rep 3 (HeLa cells; [13]): 2624
